Data taken from patent US11912701B2, “Protein kinase inhibitors for promoting liver regeneration or reducing or preventing hepatocyte death” (HEPAREGENIX GMBH, priority 2018, dated 2024).

Columns and labels:
MKK4 [1] = biological target: T1, MKK4 (Homo sapiens, UniProt P45985); experiment: 33PanQinase enzyme assay, MKK4; assay type: biochemical; settings: assay 'IC50'; read-out: Potency MKK4 (IC50)
T1 construct: purchased ProQinase GmbH, Freiburg, Germany (33PanQinase Assay Service)
T1 sequence (P45985 1-399): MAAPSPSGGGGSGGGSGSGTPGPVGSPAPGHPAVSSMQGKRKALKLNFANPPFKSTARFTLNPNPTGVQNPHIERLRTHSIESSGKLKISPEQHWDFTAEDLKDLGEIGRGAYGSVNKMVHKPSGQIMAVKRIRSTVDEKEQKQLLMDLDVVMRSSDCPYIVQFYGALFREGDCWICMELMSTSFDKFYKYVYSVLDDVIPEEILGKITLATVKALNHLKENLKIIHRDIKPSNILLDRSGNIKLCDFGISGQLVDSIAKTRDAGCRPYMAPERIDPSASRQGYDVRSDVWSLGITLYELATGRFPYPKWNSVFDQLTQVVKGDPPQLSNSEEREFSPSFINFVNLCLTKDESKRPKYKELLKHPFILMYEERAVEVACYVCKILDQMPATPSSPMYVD
Summary of the method: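 Radiometric 33PanQinase assay: kinase, substrate, ATP and compound in standard buffer, 60 min at 30 °C; 33Pi incorporation read by scintillation counting.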

JNK1 [2] = biological target: T2, JNK1 (Homo sapiens, UniProt P45983); experiment: KINOMEscan competition binding assay, JNK1; parameters: M1/Q384; host or cells: HEK-293; settings: ratio PoC (off-target)/PoC (MKK4)
Summary of the method: (§1)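 DNA-tagged kinases expressed in HEK-293 cells compete between immobilized ligand on blocked beads and test compound at 100 nM; kinase retained on beads quantified by qPCR of the tag.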
Target sequence in this assay (P45983 1-384 isoform P45983-2): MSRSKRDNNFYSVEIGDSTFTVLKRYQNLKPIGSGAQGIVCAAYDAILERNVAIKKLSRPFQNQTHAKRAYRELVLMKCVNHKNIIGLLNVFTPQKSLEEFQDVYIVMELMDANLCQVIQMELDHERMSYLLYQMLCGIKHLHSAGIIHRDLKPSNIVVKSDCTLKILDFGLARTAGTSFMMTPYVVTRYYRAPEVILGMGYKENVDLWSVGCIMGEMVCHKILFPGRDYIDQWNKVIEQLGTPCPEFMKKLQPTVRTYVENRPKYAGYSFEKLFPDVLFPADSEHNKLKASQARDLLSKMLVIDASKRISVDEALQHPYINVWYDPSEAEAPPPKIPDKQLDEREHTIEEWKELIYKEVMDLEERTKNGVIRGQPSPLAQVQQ

MKK7 [3] = biological target: T3, MKK7 (Homo sapiens, UniProt O14733); experiment: 33PanQinase enzyme assay, MKK7; assay type: biochemical; parameters: purchased ProQinase GmbH, Freiburg, Germany (33PanQinase Assay Service); settings: ratio IC50(MKK7)/IC50(MKK4)
T3 sequence (O14733 1-419): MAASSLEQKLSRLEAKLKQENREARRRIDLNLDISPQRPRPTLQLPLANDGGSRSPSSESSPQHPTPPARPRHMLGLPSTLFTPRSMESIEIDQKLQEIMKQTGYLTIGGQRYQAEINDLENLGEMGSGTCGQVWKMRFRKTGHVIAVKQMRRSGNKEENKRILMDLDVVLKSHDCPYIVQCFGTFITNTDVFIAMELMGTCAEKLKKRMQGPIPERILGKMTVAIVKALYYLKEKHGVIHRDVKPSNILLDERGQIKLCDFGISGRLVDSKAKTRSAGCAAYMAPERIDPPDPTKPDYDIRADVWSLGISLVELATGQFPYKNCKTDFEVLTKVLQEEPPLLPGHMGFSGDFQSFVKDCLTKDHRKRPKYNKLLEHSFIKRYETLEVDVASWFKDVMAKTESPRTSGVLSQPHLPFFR
Summary of the method: (§2)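 Radiometric 33PanQinase format: kinase with substrate, ATP and compound (added in 10% DMSO stock) incubated 60 min at 30° C, stopped with 2% H3PO4, ^33Pi incorporation counted by scintillation. Single-concentration data given as % residual activity; IC50 by least-squares fit, with selectivity as IC50(off-target)/IC50(MKK4).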

MKK4 [4] = biological target: T4, MKK4 (Homo sapiens, UniProt P45985); experiment: KINOMEscan competition binding assay, MKK4; settings: residual percent of control binding (PoC) at 100 nM
T4 construct: S84/D399; host or cells: HEK-293
T4 sequence (P45985 84-399): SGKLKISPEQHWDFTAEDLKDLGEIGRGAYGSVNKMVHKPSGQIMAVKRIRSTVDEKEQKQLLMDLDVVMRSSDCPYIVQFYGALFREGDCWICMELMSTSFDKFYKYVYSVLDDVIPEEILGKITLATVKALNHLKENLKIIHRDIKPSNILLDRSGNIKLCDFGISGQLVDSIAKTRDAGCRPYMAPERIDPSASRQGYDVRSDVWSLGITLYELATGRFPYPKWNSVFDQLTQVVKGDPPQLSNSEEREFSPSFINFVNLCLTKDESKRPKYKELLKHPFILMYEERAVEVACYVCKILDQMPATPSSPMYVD
Summary of the method: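 KINOMEscan competition of compound versus immobilized ligand for DNA-tagged MKK4 expressed in HEK-293 cells. Bound kinase was quantified by qPCR after elution.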

BRaf [5] = biological target: T5, BRaf (Homo sapiens, UniProt P15056); experiment: 33PanQinase enzyme assay, BRaf; assay type: biochemical; settings: ratio IC50(BRaf)/IC50(MKK4)
T5 construct: purchased ProQinase GmbH, Freiburg, Germany (33PanQinase Assay Service)
Summary of the method: as §2

BRaf [6] = biological target: T5, BRaf; experiment: KINOMEscan competition binding assay, BRaf; settings: ratio PoC (off-target)/PoC (MKK4)
Summary of the method: as §1

MKK7 [7] = biological target: T3, MKK7; experiment: KINOMEscan competition binding assay, MKK7; parameters: M1/R419; host or cells: HEK-293; settings: ratio PoC (off-target)/PoC (MKK4)
Summary of the method: as §1

JNK1 [8] = biological target: T2, JNK1; experiment: 33PanQinase enzyme assay, JNK1; assay type: biochemical; parameters: purchased ProQinase GmbH, Freiburg, Germany (33PanQinase Assay Service); settings: ratio IC50(JNK1)/IC50(MKK4)
Summary of the method: as §2
Target sequence in this assay (P45983 whole entry): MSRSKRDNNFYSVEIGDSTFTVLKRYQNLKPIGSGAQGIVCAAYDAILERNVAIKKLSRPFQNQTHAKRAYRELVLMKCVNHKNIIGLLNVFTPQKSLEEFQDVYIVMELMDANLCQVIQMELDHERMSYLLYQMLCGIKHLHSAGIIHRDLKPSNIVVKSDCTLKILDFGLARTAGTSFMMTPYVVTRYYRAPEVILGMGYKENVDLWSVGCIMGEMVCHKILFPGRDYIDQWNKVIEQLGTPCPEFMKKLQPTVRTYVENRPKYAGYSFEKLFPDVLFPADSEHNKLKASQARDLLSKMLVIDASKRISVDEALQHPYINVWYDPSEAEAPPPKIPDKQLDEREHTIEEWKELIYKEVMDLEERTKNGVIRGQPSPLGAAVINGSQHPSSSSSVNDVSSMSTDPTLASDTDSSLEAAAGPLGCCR

T5 sequence (P15056 whole entry, species assumed): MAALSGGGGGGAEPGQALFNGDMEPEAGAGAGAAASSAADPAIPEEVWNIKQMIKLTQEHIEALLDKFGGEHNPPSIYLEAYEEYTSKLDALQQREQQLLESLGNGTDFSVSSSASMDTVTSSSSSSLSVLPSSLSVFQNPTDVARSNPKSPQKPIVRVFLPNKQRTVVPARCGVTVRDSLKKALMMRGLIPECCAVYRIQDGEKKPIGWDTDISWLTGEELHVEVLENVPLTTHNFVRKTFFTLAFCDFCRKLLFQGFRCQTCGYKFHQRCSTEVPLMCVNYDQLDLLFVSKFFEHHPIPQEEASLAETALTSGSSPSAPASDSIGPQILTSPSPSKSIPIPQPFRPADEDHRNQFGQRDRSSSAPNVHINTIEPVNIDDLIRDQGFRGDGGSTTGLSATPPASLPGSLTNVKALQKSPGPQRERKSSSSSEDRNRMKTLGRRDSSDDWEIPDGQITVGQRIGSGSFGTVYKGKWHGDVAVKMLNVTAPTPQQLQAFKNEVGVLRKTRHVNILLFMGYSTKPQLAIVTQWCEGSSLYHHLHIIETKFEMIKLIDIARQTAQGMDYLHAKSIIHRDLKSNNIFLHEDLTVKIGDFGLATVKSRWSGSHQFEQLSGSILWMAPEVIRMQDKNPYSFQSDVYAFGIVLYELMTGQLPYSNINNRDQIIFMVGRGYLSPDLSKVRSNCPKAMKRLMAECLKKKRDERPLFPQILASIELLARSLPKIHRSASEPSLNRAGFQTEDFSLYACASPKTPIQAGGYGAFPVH

SMILES	IC50 (MKK4 [1]) [µM]	selectivity based on % Ctrl @100 nM vs. JNK1 (JNK1 [2])	Selectivity IVIKK7, IC50(off-target)/IC50(MKK4) (MKK7 [3])	MKK4 [% Ctrl @ 100 nM (MKK4 [4])	Selectivity Braf, IC50(off-target)/IC50(MKK4) (BRaf [5])	selectivity based on % Ctrl @100 nM vs. Braf (BRaf [6])	selectivity based on % Ctrl @100 nM vs. MKK7 (MKK7 [7])	Selectivity JNK1, IC50(off-target)/IC50(MKK4) (JNK1 [8])
O=C(c1c(F)ccc(NS(=O)(=O)CCC(F)(F)F)c1F)c1c[nH]c2ncc(-c3ccc(N4CCOCC4)nc3)cc12 [Example 79, N-(2,4-difluoro-3-(5-(6-morpholinopyridin-3-yl)-1H-pyrrolo[2,3-b]pyridine-3-carbonyl)phenyl)-3,3,3-trifluoropropane-1-sulfonamide]	< 0.1	+++ (Ratio > 100)	+++ (IC50(off-target)/IC50(MKK4) > 100)	+++ (PoC < 1)	+ (10 ≥ IC50(off-target)/IC50(MKK4) > 3)	+++ (Ratio > 100)	+++ (Ratio > 100)	++ (100 ≥ IC50(off-target)/IC50(MKK4) > 10)
O=C(c1c(F)ccc(NS(=O)(=O)CCC(F)(F)F)c1F)c1c[nH]c2ncc(-c3ccc(N4CCS(=O)(=O)CC4)nc3)cc12 [Example 81, N-(3-(5-(6-(1,1-dioxidothiomorpholino)pyridin-3-yl)-1H-pyrrolo[2,3-b]pyridine-3-carbonyl)-2,4-difluorophenyl)-3,3,3-trifluoropropane-1-sulfonamide]	< 0.1	+++ (Ratio > 100)	+++ (IC50(off-target)/IC50(MKK4) > 100)	+++ (PoC < 1)	+ (10 ≥ IC50(off-target)/IC50(MKK4) > 3)	+++ (Ratio > 100)	+++ (Ratio > 100)	++ (100 ≥ IC50(off-target)/IC50(MKK4) > 10)
CCCS(=O)(=O)Nc1ccc(F)c(C(=O)c2c[nH]c3ncc(-c4ccc(C5CCC5)cc4)cc23)c1F [Example 82, N-(3-(5-(4-cyclobutylphenyl)-1H-pyrrolo[2,3-b]pyridine-3-carbonyl)-2,4-difluorophenyl)propane-1-sulfonamide]	0.1 to 1	+++ (Ratio > 100)	+++ (IC50(off-target)/IC50(MKK4) > 100)	+++ (PoC < 1)	◯ (3 ≥ IC50(off-target)/IC50(MKK4))	+++ (Ratio > 100)	+++ (Ratio > 100)	+ (10 ≥ IC50(off-target)/IC50(MKK4) > 3)
CCCS(=O)(=O)Nc1ccc(F)c(C(=O)c2c[nH]c3ncc(-c4cccc(O)c4)cc23)c1F [Example 101, N-(2,4-difluoro-3-(5-(3-hydroxyphenyl)-1H-pyrrolo[2,3-b]pyridine-3-carbonyl)phenyl)propane-1-sulfonamide]	0.1 to 1	++ (100 ≥ ratio > 10)	+++ (IC50(off-target)/IC50(MKK4) > 100)	++ (1 ≤ PoC < 3)	◯ (3 ≥ IC50(off-target)/IC50(MKK4))	◯ (3 ≥ Ratio)	++ (100 ≥ ratio > 10)	◯ (3 ≥ IC50(off-target)/IC50(MKK4))
CCCS(=O)(=O)Nc1ccc(F)c(C(=O)c2c[nH]c3ncc(-c4ccccc4OC)cc23)c1F [Example 102, N-(2,4-difluoro-3-(5-(2-methoxyphenyl)-1H-pyrrolo[2,3-b]pyridine-3-carbonyl)phenyl)propane-1-sulfonamide]	0.1 to 1	++ (100 ≥ ratio > 10)	+++ (IC50(off-target)/IC50(MKK4) > 100)	++ (1 ≤ PoC < 3)	◯ (3 ≥ IC50(off-target)/IC50(MKK4))	++ (100 ≥ ratio > 10)	++ (100 ≥ ratio > 10)	+ (10 ≥ IC50(off-target)/IC50(MKK4) > 3)
CCCS(=O)(=O)Nc1ccc(F)c(C(=O)c2c[nH]c3ncc(-c4cccc(OC)c4)cc23)c1F [Example 103, N-(2,4-difluoro-3-(5-(3-methoxyphenyl)-1H-pyrrolo[2,3-b]pyridine-3-carbonyl)phenyl)propane-1-sulfonamide]	0.1 to 1	++ (100 ≥ ratio > 10)	+++ (IC50(off-target)/IC50(MKK4) > 100)	+ (3 ≤ PoC < 30)	◯ (3 ≥ IC50(off-target)/IC50(MKK4))	◯ (3 ≥ Ratio)	++ (100 ≥ ratio > 10)	+ (10 ≥ IC50(off-target)/IC50(MKK4) > 3)
CCCS(=O)(=O)Nc1ccc(F)c(C(=O)c2c[nH]c3ncc(-c4ccc(OC)c(OC)c4)cc23)c1F [Example 105, N-(3-(5-(3,4-dimethoxyphenyl)-1H-pyrrolo[2,3-b]pyridine-3-carbonyl)-2,4-difluorophenyl)propane-1-sulfonamide]	0.1 to 1	++ (100 ≥ ratio > 10)	+++ (IC50(off-target)/IC50(MKK4) > 100)	++ (1 ≤ PoC < 3)	◯ (3 ≥ IC50(off-target)/IC50(MKK4))	◯ (3 ≥ Ratio)	++ (100 ≥ ratio > 10)	++ (100 ≥ IC50(off-target)/IC50(MKK4) > 10)
CCCS(=O)(=O)Nc1ccc(F)c(C(=O)c2c[nH]c3ncc(-c4ccc(C(F)(F)F)cc4)cc23)c1F [Example 106, N-(2,4-difluoro-3-(5-(4-(trifluoromethyl)phenyl)-1H-pyrrolo[2,3-b]pyridine-3-carbonyl)phenyl)propane-1-sulfonamide]	0.1 to 1	+ (10 ≥ ratio > 3)	+++ (IC50(off-target)/IC50(MKK4) > 100)	+ (3 ≤ PoC < 30)	◯ (3 ≥ IC50(off-target)/IC50(MKK4))	◯ (3 ≥ Ratio)	+ (10 ≥ ratio > 3)	+ (10 ≥ IC50(off-target)/IC50(MKK4) > 3)
